Entries after “also recorded” stand apart in the source; their conditions may differ.
Columns and labels:
PARP-2 enzyme = molecular target: T1, PARP-2 enzyme (Homo sapiens, UniProt Q9UGN5); test: Poly (ADP-ribose) polymerase 2 (PARP-2) inhibition assay (colorimetric kit); format: biochemical; settings: for IC50: in vitro enzyme assay
T1 construct: purchased BPS Bioscience 80,581
Method: Results were expressed as IC50 values (Table 2).
The PARP-2 inhibitory activity of the test compounds was assayed using PARP-2 Colorimetric Activity Assay Kit (BPS Bioscience, catalog 80,581, San Diego, CA, USA) following the manufacturer’s protocol. Briefly, histone protein mixture was coated on a 96-well microtiter plate and incubated at 4 °C overnight, washed with phosphate-buffered saline with tween-20 (PBST) three times then, the wells were blocked by adding blocking buffer 3 and incubated at room temperature for 60–90 min. After that, the plate was washed with PBST buffer three times. The master mixture which contains the PARP buffer, PARP assay mixture, activated DNA and distilled water was added to each well then, the inhibitor solution (test compound) was added. The reaction was initiated by adding PARP-2 enzyme to the wells and the plate was incubated for 1 h at room temperature. After 1 h, the reaction mixture was discarded, and the plate was washed with PBST buffer three times. Finally, the plate was treated with Streptavidin–Horseradish Peroxidase (HRP) and incubated for 30 min at room temperature and then washed with PBST buffer. The colorimetric HRP substrate was added to each well and incubated at room temperature until the positive control well developed blue color. Sulphuric acid was added to each well after the blue color development. The absorbance was read at 450 nm using UV/Vis spectrophotometer microplate reader.
Suppl. S2. In vitro PARP-2 enzyme inhibition assay
Researcher : Dr. Nadeen Ghobashy email:elghobashynadeen@gmail.com mob.01008873340
Reader : ROBONIK P2000 Eliza Reader wl 450 nm

MCF-7 cells [1] = test: Cell cycle analysis by flow cytometry (PI staining); format: cell-based, human; settings: MCF-7 treated at IC50 concentration; for percentage of cells in pre-G1 phase (%Pre-G1) / percentage of cells in G2/M phase (%G2/M) / percentage of cells in S phase (%S) / percentage of cells in G0/G1 phase (%G0-G1): 24 h; for percentage of cells in pre-G1 phase (%Pre-G1): untreated control 1.85%; for percentage of cells in G2/M phase (%G2/M): untreated control 11.84%; for percentage of cells in S phase (%S): untreated control 29.95%; for percentage of cells in G0/G1 phase (%G0-G1): untreated control 58.21%
Method: For further investigation of the promising antiproliferative activity of compounds 11, 12, 13 and 27 on breast cancer MCF-7 cell line, cell cycle analysis was carried out using flow cytometric assay. […] The flow cytometric assay results were compared to the negative control untreated MCF-7 cell line.
MCF-7 cells were seeded in 24-well plate at a density of 2 × 10^5 cells/well, treated with the test compounds 11, 12, 13 and 27 at different concentrations and incubated at 37 °C for 24 h in 5% CO2 atmosphere. The cells were washed with ice-cold phosphate buffer saline (PBS) twice and fixed in 70% ice-cold ethanol overnight and then suspended in (PBS) containing PI (DNA staining solution) at concentration of 50 µg/mL, 0.1 mg/mL RNAase A (Sigma, USA) and 0.05% Triton X-100. Cells were analysed by flow cytometry after 30 min at 37 n the dark using FACSCalibur (Becton Dickinson FACS, San Jose, CA) flow cytometer. The cell cycle distributions were measured using Cell-Quest software.
Suppl. S3. Cell cycle analysis for compounds 11, 12, 13 and 27 […]
Assay : Cell Cycle Analysis
Kit used : ab139418_Propidium Iodide Flow Cytometry Kit/BD
Assay samples : Cell culture
Table S3. Cell cycle phase distribution in MCF-7 cell line treated with vehicle control and the newly synthesised compounds; 11, 12, 13 and 27. […]

MCF-7 cells [2] = test: Annexin V-FITC/PI double staining flow cytometry, apoptosis and necrosis; format: cell-based, human; settings: MCF-7 treated at IC50 concentration, 24 h; for % Late apoptosis: untreated control 0.33%; for % Early apoptosis: untreated control 0.37%; for % Necrosis: untreated control 1.15%; for % Total apoptosis: untreated control 1.85%
Description: Apoptosis, which is a programmed cell death, is considered as an important way to express cell death among anticancer agents. Most of the anticancer agents can induce apoptosis in cancerous cells. To examine whether the potent cytotoxic effect of 11, 12, 13 and 27 was attributed to apoptosis or necrosis, annexin V-FITC propidium iodide (PI) double staining flow cytometry assay was applied. […] The cells were then stained with annexin V-FITC propidium iodide (PI) and the percentage of apoptotic cells was determined by flow cytometry. […] Compounds 11, 12, 13 and 27 induced necrotic effect 5.74%, 7.23%, 6.39% and 2.07%, respectively in comparison to the untreated negative control MCF-7 cells (1.15%).
Cell death by apoptosis was detected by flow cytometric method using Annexin-V/FITC propidium iodide Apoptosis Detection Kit Catalog #: K101-25; Biovision, USA). MCF-7 cells were seeded at a density of 2 × 10 ^5 cells/well in 24-well plate, treated with the test compounds 11, 12, 13 and 27 at different concentrations and incubated at 37 °C for 24 h in 5% CO2 atmosphere. Cells were collected and suspended in 500 µl binding buffer and then 5 µl of Annexin V-FITC and 5 µl of PI were added and mixed. The mixture was incubated for 5 min in the dark at room temperature. Cell apoptosis analyses were performed using FACSCalibur (Becton Dickinson FACS, San Jose, CA) flow cytometer.

MDA-MB-231 = test: In vitro cytotoxicity screening, MTT assay; settings: Homo sapiens, MDA-MB-231, 24 h, read-out: In vitro Cytotoxicity (IC50, µM) MDA-MB-231
Description: Two human breast cancer cell lines, namely, MDA-MB-231 and MCF-7 were obtained from American Type Culture Collection (ATCC) via a holding company for biological products and vaccines (VACSERA), Cairo, Egypt. […] The reagents used were RPMI-1640 medium, MTT, DMSO (sigma co., St. Louis, USA), and Fetal bovine serum (GIBCO, UK). […] MTT is a colorimetric assay based on the conversion of the yellow tetrazolium bromide (MTT) to a purple formazan derivative by mitochondrial succinate dehydrogenase in viable cells. Cell lines were cultured in RPMI-1640 medium with 10% foetal bovine serum. Antibiotics added were 100 units/ml penicillin and 100 µg/ml streptomycin maintained at 37 °C in a 5% CO2 incubator. The cell lines were seeded at a density of approximately 1.0 × 10 ^4 cells/well in a 96-well plate at 37 °C for 48 h under 5% CO2. Different concentrations of compounds were added and incubated for 24 h. After 24 h of drug treatment, 20 µl of MTT staining solution at 5 mg/ml was added to each well and incubated for 4 h at 37 °C. After 4 h, 100 µl of dimethyl sulfoxide (DMSO) were added into each well to dissolve the purple formazan crystals formed. The absorbance was recorded at 570 nm using a plate reader (EXL 800, USA). The relative cell viability in percentage was calculated as (A570 of treated samples/A570 of untreated sample) X 100 [22],[23].

T1 sequence (Q9UGN5 whole entry): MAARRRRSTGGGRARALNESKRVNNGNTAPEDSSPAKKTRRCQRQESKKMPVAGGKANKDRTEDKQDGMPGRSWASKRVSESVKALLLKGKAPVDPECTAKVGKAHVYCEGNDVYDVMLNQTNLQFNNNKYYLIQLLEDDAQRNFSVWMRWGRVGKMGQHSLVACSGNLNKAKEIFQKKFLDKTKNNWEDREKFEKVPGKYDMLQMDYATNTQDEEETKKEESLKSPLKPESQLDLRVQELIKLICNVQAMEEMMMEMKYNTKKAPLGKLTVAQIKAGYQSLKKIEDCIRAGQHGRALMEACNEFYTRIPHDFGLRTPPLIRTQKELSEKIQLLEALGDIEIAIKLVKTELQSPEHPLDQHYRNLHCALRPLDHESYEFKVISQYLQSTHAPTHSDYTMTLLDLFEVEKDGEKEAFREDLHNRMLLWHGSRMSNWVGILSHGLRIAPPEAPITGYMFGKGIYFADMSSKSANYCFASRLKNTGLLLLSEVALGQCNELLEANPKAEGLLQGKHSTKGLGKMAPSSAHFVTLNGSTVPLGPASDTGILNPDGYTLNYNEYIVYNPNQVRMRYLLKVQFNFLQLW

Row | Structure (SMILES) | %inh of PARP-2 (Table S2 raw data) (PARP-2 enzyme; conc 0.01 (ng/ml)) | %inh of PARP-2 (Table S2 raw data) (PARP-2 enzyme; conc 0.1 (ng/ml)) | %inh of PARP-2 (Table S2 raw data) (PARP-2 enzyme; conc 1 (ng/ml)) | %inh of PARP-2 (Table S2 raw data) (PARP-2 enzyme; conc 10 (ng/ml)) | IC50 (PARP-2 enzyme) | cell cycle arrest phase (MCF-7 cells [1]) | percentage of cells in pre-G1 phase (%Pre-G1) (MCF-7 cells [1]) | percentage of cells in G2/M phase (%G2/M) (MCF-7 cells [1]) | percentage of cells in S phase (%S) (MCF-7 cells [1]) | percentage of cells in G0/G1 phase (%G0-G1) (MCF-7 cells [1]) | % Late apoptosis (MCF-7 cells [2]) | % Early apoptosis (MCF-7 cells [2]) | % Necrosis (MCF-7 cells [2]) | % Total apoptosis (MCF-7 cells [2]) | IC50 (MDA-MB-231)
1 | CN1CCN(CCC(=O)Nc2ccc(-c3nc4cc(Cl)ccc4o3)cc2)CC1 [Compound 13, N-(4-(5-chlorobenzoxazol-2-yl)phenyl)-3-(4-methylpiperazin-1-yl)propanamide] | 30.58% | 46.82% | 71.31% | 88.69% | 106 ± 6 nM | cell growth arrest@ G2/M; also recorded: cell cycle arrest at G2/M phase | 29.66% | 26.51% | 28.51% | 44.98% | 10.99% | 12.28% | 6.39% | 29.66% | 7.52 ± 0.6 µM
2 | CCN(CC)CCC(=O)Nc1ccc(-c2nc3cc(Cl)ccc3o2)cc1 [Compound 27, N-(4-(5-chlorobenzoxazol-2-yl)phenyl)-3-(diethylamino)propanamide] | 37.25% | 52.67% | 73.48% | 88.84% | 57 ± 3 nM | – | 25.91% | 4.46% | 33.16% | 62.38% | 4.58% | 19.26% | 2.07% | 25.91% | 11.3 ± 0.9 µM
3 | O=C(CCN1CCOCC1)Nc1ccc(-c2nc3cc(Cl)ccc3o2)cc1 [Compound 12, N-(4-(5-chlorobenzoxazol-2-yl)phenyl)-3-morpholinopropanamide] | 35.69% | 53.11% | 67.93% | 90.18% | 70 ± 4 nM | – | 33.47% | 32.04% | 26.18% | 41.78% | 3.72% | 22.52% | 7.23% | 33.47% | 6.14 ± 0.5 µM
4 | O=C(CCN1CCCCC1)Nc1ccc(-c2nc3cc(Cl)ccc3o2)cc1 [Compound 11, N-(4-(5-chlorobenzoxazol-2-yl)phenyl)-3-(piperidin-1-yl)propanamide] | 28.75% | 43.61% | 58.88% | 84.97% | 190 ± 10 nM | cell growth arrest@ G1; also recorded: cell cycle arrest at G0/G1 phase | 45.07% | 7.22% | 24.76% | 68.02% | 23.02% | 16.31% | 5.74% | 45.07% | 5.63 ± 0.3 µM

Source: PMC9519869, “Synthesis, biological evaluation, and molecular modeling studies of new benzoxazole derivatives as PARP-2 inhibitors targeting breast cancer” (Scientific Reports, 2022)
